Experimental data: patent publication US20150105252A1, “SUBSTITUTED PYRAZOLES AS HERBICIDES” (E I DU PONT DE NEMOURS AND COMPANY, priority 2013, published 2015)

Experiments:
field violet = experiment: Test D postemergence; format: in vivo, Viola arvensis; conditions: scale 0 to 100
Description: (§1) Seeds of plant species selected from bluegrass (annual bluegrass, Poa annua), blackgrass (Alopecurus myosuroides), canarygrass (littleseed canarygrass, Phalaris minor), chickweed (common chickweed, Stellaria media), galium (catchweed bedstraw, Galium aparine), bromegrass, downy (downy bromegrass, Bromus tectorum), field poppy (Papaver rhoeas), field violet (Viola arvensis), foxtail, green (green foxtail, Setaria viridis), deadnettle (henbit deadnettle, Lamium amplexicaule), ryegrass, Italian (Italian ryegrass, Lolium multiflorum), kochia (Kochia scoparia), lambsquarters (Chenopodium album), oilseed rape (Brassica napus), pigweed (redroot pigweed, Amaranthus retroflexus), chamomile (scentless chamomile, Matricaria inodora), speedwell (bird's-eye speedwell, Veronica persica), barley, spring (spring barley, Hordeum vulgare), wheat, spring (spring wheat, Triticum aestivum), buckwheat, wild (wild buckwheat, Polygonum convolvulus), mustard, wild (wild mustard, Sinapis arvensis), oat, wild (wild oat, Avena fatua), radish, wild (wild radish, Raphanus raphanistrum), windgrass (Apera spica-venti), Russian thistle (Salsola kali), barley, winter (winter barley, Hordeum vulgare), and wheat, winter (winter wheat, Triticum aestivum) were planted into a silt loam soil and treated preemergence with test chemicals formulated in a non-phytotoxic solvent mixture which included a surfactant.
(§2) At the same time, these species were planted in pots containing Redi-Earth® planting medium (Scotts Company, 14111 Scottslawn Road, Marysville, Ohio 43041) comprising spaghnum peat moss, vermiculite, wetting agent and starter nutrients and treated with postemergence applications of the test chemicals formulated in the same manner. Plants ranged in height from 2 to 18 cm (1- to 4-leaf stage). Treated plants and controls were maintained in a controlled growth environment for 14 to 21 days after which time all species were compared to controls and visually evaluated. Plant response ratings, summarized in Table D, are based on a scale of 0 to 100 where 0 is no effect and 100 is complete control. A dash (-) response means no test result.

deadnettle = experiment: Test D postemergence; format: in vivo, Lamium amplexicaule; conditions: scale 0 to 100
Description: as §1, §2

mustard, wild = experiment: Test D preemergence; format: in vivo, Sinapis arvensis; conditions: for Plant response rating, Mustard, Wild: Preemergence, scale 0 to 100
Description: as §1, §2

oat, wild [1] = experiment: Test D postemergence; format: in vivo, Avena fatua; conditions: scale 0 to 100
Description: as §1, §2

wheat, winter = experiment: Test D postemergence; format: in vivo, Triticum aestivum; conditions: scale 0 to 100
Description: as §1, §2

wheat, spring = experiment: Test D postemergence; format: in vivo, Triticum aestivum; conditions: scale 0 to 100
Description: as §1, §2

windgrass = experiment: Test D postemergence; format: in vivo, Apera spica-venti; conditions: scale 0 to 100
Description: as §1, §2

oat, wild [2] = experiment: Test D preemergence; format: in vivo, Avena fatua; conditions: for Plant response rating, Oat, Wild: Preemergence, scale 0 to 100
Description: as §1, §2

buckwheat, wild = experiment: Test D postemergence; format: in vivo, Polygonum convolvulus; conditions: scale 0 to 100
Description: as §1, §2

foxtail, green [3] = experiment: Test D preemergence; format: in vivo, Setaria viridis; conditions: for Plant response rating, Foxtail, Green: Preemergence, scale 0 to 100
Description: as §1, §2

foxtail, green [4] = experiment: Test D postemergence; format: in vivo, Setaria viridis; conditions: scale 0 to 100
Description: as §1, §2

[5] = 16 g ai/ha, taken as preemergence

O=C(NC1CC1)c1cc(CCF)n(Cc2ccnc(C(F)(F)F)c2)n1 [Compound 176]
Plant response rating, Field Violet (field violet; Postemergence, 16 g ai/ha): 35
Field Violet plant response rating (field violet; Postemergence, 31 g ai/ha): 50
Field Violet plant response rating (field violet; Postemergence, 125 g ai/ha): 70
Field Violet plant response rating (field violet; postemergence, 62 g ai/ha): 50
Plant response rating, Deadnettle (deadnettle; Postemergence, 16 g ai/ha): 10
Deadnettle plant response rating (deadnettle; Postemergence, 31 g ai/ha): 35
Deadnettle plant response rating (deadnettle; Postemergence, 125 g ai/ha): 45
Deadnettle plant response rating (deadnettle; postemergence, 62 g ai/ha): 35
Plant response rating (scale 0 to 100), Mustard, Wild (mustard, wild; [5]): 10
Plant response rating, Mustard, Wild (mustard, wild; 62 g ai/ha): 90
Plant response rating, Mustard, Wild (mustard, wild; 125 g ai/ha): 100
Plant response rating, Oat, Wild (oat, wild [1]; Postemergence, 16 g ai/ha): 5
Oat, Wild plant response rating (oat, wild [1]; Postemergence, 31 g ai/ha): 15
Oat, Wild plant response rating (oat, wild [1]; Postemergence, 125 g ai/ha): 20
Oat, Wild plant response rating (oat, wild [1]; postemergence, 62 g ai/ha): 15
Plant response rating, Wheat, Winter (wheat, winter; Postemergence, 16 g ai/ha): 5
Wheat, Winter plant response rating (wheat, winter; Postemergence, 31 g ai/ha): 5
Wheat, Winter plant response rating (wheat, winter; Postemergence, 125 g ai/ha): 15
Wheat, Winter plant response rating (wheat, winter; postemergence, 62 g ai/ha): 5
Plant response rating, Wheat, Spring (wheat, spring; Postemergence, 16 g ai/ha): 0
Wheat, Spring plant response rating (wheat, spring; Postemergence, 31 g ai/ha): 0
Wheat, Spring plant response rating (wheat, spring; Postemergence, 125 g ai/ha): 0
Wheat, Spring plant response rating (wheat, spring; postemergence, 62 g ai/ha): 0
Plant response rating, Windgrass (windgrass; Postemergence, 16 g ai/ha): 5
Windgrass plant response rating (windgrass; Postemergence, 31 g ai/ha): 15
Windgrass plant response rating (windgrass; Postemergence, 125 g ai/ha): 25
Windgrass plant response rating (windgrass; postemergence, 62 g ai/ha): 15
Plant response rating (scale 0 to 100), Oat, Wild (oat, wild [2]; [5]): 0
Plant response rating, Oat, Wild (oat, wild [2]; 62 g ai/ha): 10
Plant response rating, Oat, Wild (oat, wild [2]; 125 g ai/ha): 40
Plant response rating, Buckwheat, Wild (buckwheat, wild; Postemergence, 16 g ai/ha): 30
Buckwheat, Wild plant response rating (buckwheat, wild; Postemergence, 31 g ai/ha): 55
Buckwheat, Wild plant response rating (buckwheat, wild; Postemergence, 125 g ai/ha): 65
Buckwheat, Wild plant response rating (buckwheat, wild; postemergence, 62 g ai/ha): 55
Plant response rating (scale 0 to 100), Foxtail, Green (foxtail, green [3]; [5]): 0
Plant response rating, Foxtail, Green (foxtail, green [3]; 62 g ai/ha): 15
Plant response rating, Foxtail, Green (foxtail, green [3]; 125 g ai/ha): 40
Plant response rating, Foxtail, Green (foxtail, green [4]; Postemergence, 16 g ai/ha): 10
Foxtail, Green plant response rating (foxtail, green [4]; Postemergence, 31 g ai/ha): 20
Foxtail, Green plant response rating (foxtail, green [4]; Postemergence, 125 g ai/ha): 35
Foxtail, Green plant response rating (foxtail, green [4]; postemergence, 62 g ai/ha): 20

CCCc1cc(C(=O)NC2CC2)nn1Cc1cc(C(F)(F)F)nn1C [Compound 202]
Field Violet plant response rating (field violet; Postemergence, 31 g ai/ha): 25
Field Violet plant response rating (field violet; Postemergence, 125 g ai/ha): 45
Field Violet plant response rating (field violet; Postemergence, 250 g ai/ha): 50
Field Violet plant response rating (field violet; postemergence, 62 g ai/ha): 25
Deadnettle plant response rating (deadnettle; Postemergence, 31 g ai/ha): 55
Deadnettle plant response rating (deadnettle; Postemergence, 125 g ai/ha): 60
Deadnettle plant response rating (deadnettle; Postemergence, 250 g ai/ha): 65
Deadnettle plant response rating (deadnettle; postemergence, 62 g ai/ha): 55
Plant response rating, Mustard, Wild (mustard, wild; 62 g ai/ha): 100
Plant response rating, Mustard, Wild (mustard, wild; 125 g ai/ha): 100
Plant response rating, Mustard, Wild (mustard, wild; 250 g ai/ha): 100
Oat, Wild plant response rating (oat, wild [1]; Postemergence, 31 g ai/ha): 25
Oat, Wild plant response rating (oat, wild [1]; Postemergence, 125 g ai/ha): 30
Oat, Wild plant response rating (oat, wild [1]; Postemergence, 250 g ai/ha): 40
Oat, Wild plant response rating (oat, wild [1]; postemergence, 62 g ai/ha): 25
Wheat, Winter plant response rating (wheat, winter; Postemergence, 31 g ai/ha): 15
Wheat, Winter plant response rating (wheat, winter; Postemergence, 125 g ai/ha): 20
Wheat, Winter plant response rating (wheat, winter; Postemergence, 250 g ai/ha): 25
Wheat, Winter plant response rating (wheat, winter; postemergence, 62 g ai/ha): 15
Wheat, Spring plant response rating (wheat, spring; Postemergence, 31 g ai/ha): 10
Wheat, Spring plant response rating (wheat, spring; Postemergence, 125 g ai/ha): 10
Wheat, Spring plant response rating (wheat, spring; Postemergence, 250 g ai/ha): 20
Wheat, Spring plant response rating (wheat, spring; postemergence, 62 g ai/ha): 10
Windgrass plant response rating (windgrass; Postemergence, 31 g ai/ha): 15
Windgrass plant response rating (windgrass; Postemergence, 125 g ai/ha): 25
Windgrass plant response rating (windgrass; Postemergence, 250 g ai/ha): 35
Windgrass plant response rating (windgrass; postemergence, 62 g ai/ha): 15
Plant response rating, Oat, Wild (oat, wild [2]; 62 g ai/ha): 15
Plant response rating, Oat, Wild (oat, wild [2]; 125 g ai/ha): 65
Plant response rating, Oat, Wild (oat, wild [2]; 250 g ai/ha): 100
Buckwheat, Wild plant response rating (buckwheat, wild; Postemergence, 31 g ai/ha): 40
Buckwheat, Wild plant response rating (buckwheat, wild; Postemergence, 125 g ai/ha): 70
Buckwheat, Wild plant response rating (buckwheat, wild; Postemergence, 250 g ai/ha): 90
Buckwheat, Wild plant response rating (buckwheat, wild; postemergence, 62 g ai/ha): 40
Plant response rating, Foxtail, Green (foxtail, green [3]; 62 g ai/ha): 35
Plant response rating, Foxtail, Green (foxtail, green [3]; 125 g ai/ha): 80
Plant response rating, Foxtail, Green (foxtail, green [3]; 250 g ai/ha): 100
Foxtail, Green plant response rating (foxtail, green [4]; Postemergence, 31 g ai/ha): 20
Foxtail, Green plant response rating (foxtail, green [4]; Postemergence, 125 g ai/ha): 20
Foxtail, Green plant response rating (foxtail, green [4]; Postemergence, 250 g ai/ha): 30
Foxtail, Green plant response rating (foxtail, green [4]; postemergence, 62 g ai/ha): 20

CCCc1cc(C(=O)NC(C)C)nn1Cc1cc(C(F)(F)F)nn1C [Compound 201]
Field Violet plant response rating (field violet; Postemergence, 31 g ai/ha): 55
Field Violet plant response rating (field violet; Postemergence, 125 g ai/ha): 65
Field Violet plant response rating (field violet; Postemergence, 250 g ai/ha): 75
Field Violet plant response rating (field violet; postemergence, 62 g ai/ha): 55
Deadnettle plant response rating (deadnettle; Postemergence, 31 g ai/ha): 55
Deadnettle plant response rating (deadnettle; Postemergence, 125 g ai/ha): 60
Deadnettle plant response rating (deadnettle; Postemergence, 250 g ai/ha): 65
Deadnettle plant response rating (deadnettle; postemergence, 62 g ai/ha): 55
Plant response rating, Mustard, Wild (mustard, wild; 62 g ai/ha): 100
Plant response rating, Mustard, Wild (mustard, wild; 125 g ai/ha): 100
Plant response rating, Mustard, Wild (mustard, wild; 250 g ai/ha): 100
Oat, Wild plant response rating (oat, wild [1]; Postemergence, 31 g ai/ha): 25
Oat, Wild plant response rating (oat, wild [1]; Postemergence, 125 g ai/ha): 50
Oat, Wild plant response rating (oat, wild [1]; Postemergence, 250 g ai/ha): 70
Oat, Wild plant response rating (oat, wild [1]; postemergence, 62 g ai/ha): 25
Wheat, Winter plant response rating (wheat, winter; Postemergence, 31 g ai/ha): 20
Wheat, Winter plant response rating (wheat, winter; Postemergence, 125 g ai/ha): 25
Wheat, Winter plant response rating (wheat, winter; Postemergence, 250 g ai/ha): 40
Wheat, Winter plant response rating (wheat, winter; postemergence, 62 g ai/ha): 20
Wheat, Spring plant response rating (wheat, spring; Postemergence, 31 g ai/ha): 15
Wheat, Spring plant response rating (wheat, spring; Postemergence, 125 g ai/ha): 15
Wheat, Spring plant response rating (wheat, spring; Postemergence, 250 g ai/ha): 30
Wheat, Spring plant response rating (wheat, spring; postemergence, 62 g ai/ha): 15
Windgrass plant response rating (windgrass; Postemergence, 31 g ai/ha): 20
Windgrass plant response rating (windgrass; Postemergence, 125 g ai/ha): 30
Windgrass plant response rating (windgrass; Postemergence, 250 g ai/ha): 45
Windgrass plant response rating (windgrass; postemergence, 62 g ai/ha): 20
Plant response rating, Oat, Wild (oat, wild [2]; 62 g ai/ha): 60
Plant response rating, Oat, Wild (oat, wild [2]; 125 g ai/ha): 100
Plant response rating, Oat, Wild (oat, wild [2]; 250 g ai/ha): 100
Buckwheat, Wild plant response rating (buckwheat, wild; Postemergence, 31 g ai/ha): 50
Buckwheat, Wild plant response rating (buckwheat, wild; Postemergence, 125 g ai/ha): 65
Buckwheat, Wild plant response rating (buckwheat, wild; Postemergence, 250 g ai/ha): 70
Buckwheat, Wild plant response rating (buckwheat, wild; postemergence, 62 g ai/ha): 50
Plant response rating, Foxtail, Green (foxtail, green [3]; 62 g ai/ha): 100
Plant response rating, Foxtail, Green (foxtail, green [3]; 125 g ai/ha): 100
Plant response rating, Foxtail, Green (foxtail, green [3]; 250 g ai/ha): 100
Foxtail, Green plant response rating (foxtail, green [4]; Postemergence, 31 g ai/ha): 30
Foxtail, Green plant response rating (foxtail, green [4]; Postemergence, 125 g ai/ha): 40
Foxtail, Green plant response rating (foxtail, green [4]; Postemergence, 250 g ai/ha): 55
Foxtail, Green plant response rating (foxtail, green [4]; postemergence, 62 g ai/ha): 30
